What was measured:
[1] = tested on: Wildtype (WT) mouse embryonic fibroblasts (MEFs); assay: HCQ effect on AAV (rAAV2.CAG.GFP.WPRE.pA) transduction in MEFs, flow cytometry GFP / 7-AAD; assay type: cell-based
Protocol: Cell culture. Wildtype (WT) mouse embryonic fibroblasts (MEFs) were seeded into 6-well plates. 24 hr after seeding the cells were incubated in culture media with HCQ concentrations of 3.125-50 uM for 1 hr prior to transduction with a rAAV2.CAG.GFP.WPRE.pA vector at a MOI of 1000. The cells were cultured in HCQ containing media until harvesting. Cells were imaged 3 days post-transduction (FIG. 1A).
Flow cytometry analysis. Cells were processed 3 days post-transduction and stained with the cell viability dye 7-AAD for 5 minutes prior to flow cytometry analysis. Fluorescent light was measured by a BD LSRFortessa flow cytometer using a blue laser with the bandpass filters 695 nm/[…] and 530 nm/[…] to detect the fluorochromes of 7-AAD and GFP, respectively (FIG. 1a).

[2] = tested on: Primary NHP RPE cells; assay: HCQ effect on AAV transduction in primary NHP RPE cells, GFP qPCR; assay type: cell-based, Rhesus macaque (M. mullata); conditions: 18.75 μM HCQ, 3 days post-transduction, normalized to β-actin, N=3, p=0.0253
Protocol: (§1) Harvesting non-human primate (NHP) retinal pigment epithelium (RPE) cells. After enucleation, the cornea and lens were removed under direct visualization with a surgical microscope. Radial incisions were made towards the posterior pole to flatten the eyecup. The retina was removed by blunt dissection and the remaining eyecup was placed in media and stored on ice until the RPE cells were removed. RPE cells were detached using the TrypLE cell dissociation reagent and were cultured at 37° C.
(§2) Cell culture. Primary NHP RPE cells were seeded into a 12-well plate. 24 hr after seeding, the cells were incubated in media with 3.125 uM or 18.75 uM of HCQ for 1 hr prior to transduction with 2×10^9 genome copies per well. Cells were imaged 3 days post-transduction.
RNA & protein extraction and cDNA synthesis. The primary NHP RPE were harvested for RNA extraction 3-days post-AAV transduction with HCQ. Total RNA was extracted using the RNeasy Mini Kit (Qiagen) according to the manufacturer's instructions. Copy DNA was synthesised using 850-1500 ng of RNA using the Superscript III Kit (Invitrogen) with an oligo dT primer.
qPCR analysis. qPCR was carried out using TaqMan probes against GFP and β-actin in a CFX Connect thermal cycler (BioRad). GFP expression was normalized to β-actin and represented as a fold change to transduced cells incubated without HCQ.

[3] = tested on: Primary NHP RPE cells; assay: HCQ effect on AAV transduction in primary NHP RPE cells, GFP protein western blot; assay type: cell-based, Rhesus macaque (M. mullata); conditions: 18.75 μM HCQ
Protocol: as §1, §2
Protein extraction. The flow through from RNA extraction above was combined with 4 volumes of acetone and incubated on ice for 30 min. Samples were centrifuged at 17,000×g for 30 min, the supernatant was discarded and the pellet washed in 100 μL of ice-cold ethanol. Pellets were resuspended in 1% SDS.
(§3) Western blot. Total protein content in cell lysates was determined using the bicinchoninic acid method. GFP and actin proteins were probed using monoclonal antibodies, and detected using ECL and Odyssey Imaging System (LI-COR). Data analysis was performed using ImageStudio Lite software (LI-COR). GFP band density was normalised to β-actin.

[4] = tested on: human retinal explants; assay: HCQ effect on AAV transduction in human retinal explants, mean grey value (GFP fluorescence); assay type: cell-based; conditions: 3.125 uM HCQ, 1×10^9 genome copies rAAV2.CAG.GFP.WPRE.pA, imaged every 2 days for 11 days, n=6, p=0.0213
Protocol: Harvesting tissue. Human retina fragments was extracted during routine retinal surgery in which a retinectomy was required (ethics approved). Fragments of retina were removed via a 23G sclerostomy with vitrectomy cutter (at minimal cut rate) and manual aspiration.
Culturing explants. Within 1 hr of tissue collection, retinal fragments were transferred using a 3 mL Pasteur pipette into individual organotypic culture inserts (BD Falcon), which were in turn placed within a 24-well plate. 400 uL of media was placed beneath the insert and 100 uL of media within the insert. 24 hr after culturing the retinal explants, the media was replaced with media containing 3.125 uM or 18.75 uM of HCQ. The explants were incubated in the HCQ medium for 1 hour prior to transduction with 1×10^9 genome copies of rAAV2.CAG.GFP.WPRE.pA vector. The explants were imaged every 2 days for 11 days and the mean grey value (representative of GFP fluorescence) of the explants was measured using ImageJ software (FIG. 3a).

[5] = tested on: retina of C57BL/6 mice; assay: Subretinal co-injection of AAV GFP vector and HCQ in mice, cSLO fundus autofluorescence; assay type: in vivo, mouse; conditions: AAV 1×10^8 genome copies with 18.75 uM HCQ, 4 and 8 weeks post-injection
Protocol: (§4) Subretinal injections. 7 week old female C57BL/6 mice were subretinally injected with 1.2 μL vector suspension (1×10^8 genome copies). The vector was prepared with a 3.125 uM or 18.75 uM final concentration of HCQ with control preparations without any HCQ. Animals were injected with an AAV+HCQ preparation in one eye and AAV only in the paired eye.
Confocal scanning laser ophthalmoscope (cSLO) analysis. Standardized mouse autofluorescence (AF) imaging using a cSLO (Spectralis HRA, Heidelberg Engineering) was performed in all animals according to previously published protocol. All images were recorded using the 55° lens of the Spectralis HRA at 2, 4 and 8 weeks post-injection. Images were recorded using a standardized signal detector sensitivity. For quantitative analysis of fundus AF, the mean grey level was measured within a ring-shaped area located at radii between 350 and 860 pixels from the optic disc centre using ImageJ software (NIH).

[6] = tested on: retina of C57BL/6 mice; assay: Subretinal co-injection of AAV GFP vector and HCQ in mice, OCT retinal thickness; assay type: in vivo, mouse; conditions: subretinal injection suspension with 3.125 uM or 18.75 uM HCQ, OCT at 2, 4 and 8 weeks
Protocol: as §4
OCT analysis. Animals were subject to wide-field spectral-domain optical coherence tomography (OCT, Spectralis HRA, Heidelberg Engineering) at 2, 4 and 8 weeks post-injection. Mice were scanned using a 55° lens and 8 radial sections were taken with a real-time average process of 25 frames. The total retinal thickness and the outer limiting membrane (OLM) thickness were manually measured on alternate radial sections using a calliper.

[7] = tested on: Mouse retinas; assay: Subretinal co-injection of AAV GFP vector and HCQ in mice, GFP western blot of retinas; assay type: in vivo; conditions: 18.75 μM HCQ
Protocol: as §4
Protein extraction. Mouse retinas were thawed on ice and lysed in 1× RIPA buffer+protease inhibitors. The retinas were homogenised using a hand-held homogeniser and incubated on ice for 30 mins. The samples were centrifuged at 17,000×g at 4° C. for 20 mins. The supernatant was transferred to a new tube and kept on ice.
as §3, with “blot (WB).” for “blot.”, “actin.” for “β-actin.”

[8] = mefloquine enantiomers; cited from earlier work

CCN(CCO)CCCC(C)Nc1ccnc2cc(Cl)ccc12 (stereo not shown) [HCQ, 2-[{4-[(7-chloroquinolin-4-yl)amino]pentyl}(ethyl)amino]ethanol]
HCQ concentration that induces cell death ([1]; 7-AAD viability dye, 3 days post-transduction): ≥ 25 µM | number of GFP expressing cells ([1]; HCQ 3.125-50 uM from 1 hr before transduction, rAAV2.CAG.GFP.WPRE.pA MOI 1000, 3 days post-transduction): increase the number of GFP expressing cells up to 18.75 uM | GFP mRNA expression, fold change to transduced cells incubated without HCQ [2]: 3 fold | GFP protein expression increase compared to transduced cells incubated without HCQ ([3]; 3 days post-transduction (FIGS. 2a and 2b)): 19 fold | GFP protein expression improvement by western blot ([3]; N=2, GFP band density normalised to β-actin (FIG. 2c)): approximately 4 fold | increase in mean grey value (representative of GFP fluorescence) compared to no HCQ [4]: up to 2 fold | increase in mean grey value of fundus AF images (surrogate measure of GFP expression) compared to control eyes injected with AAV only [5]: 2 fold | mean retinal thickness or retinal morphology, groups with and without HCQ [6]: no significant difference | GFP signal detected by WB compared to the 0 μM HCQ paired eye [7]: increase in the GFP signal

O[C@H](c1cc(C(F)(F)F)nc2c(C(F)(F)F)cccc12)[C@@H]1CCCCN1 (single isomer, unassigned) [(+)-enantiomer]
half-life compared with the other enantiomer [8]: shorter

From US20210038591A1, “VIRAL VECTOR TRANSDUCTION” (Oxford University Innovation Limited, priority 2018, published 2021)
